Assay results taken from PubChem BioAssay (NCI).
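Assay format: 96-well plates, 48-hour exposure. TGI: concentration producing complete growth inhibition.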

Key:
Assay in all cases: NCI tumour cell line growth inhibition, 48 h
NCI-H460 lung = system: NCI-H460 lung
SF-539 CNS = system: SF-539 CNS
UACC-257 melanoma = system: UACC-257 melanoma
OVCAR-5 ovarian = system: OVCAR-5 ovarian
HCT-116 colon = system: HCT-116 colon
OVCAR-4 ovarian = system: OVCAR-4 ovarian
SNB-19 CNS = system: SNB-19 CNS
LOX IMVI melanoma = system: LOX IMVI melanoma
DMS 273 small cell lung = system: DMS 273 small cell lung
M14 melanoma = system: M14 melanoma
SNB-78 CNS = system: SNB-78 CNS
SR leukemia = system: SR leukemia
IGROV1 ovarian = system: IGROV1 ovarian
HCC-2998 colon = system: HCC-2998 colon
M19-MEL melanoma = system: M19-MEL melanoma
K-562 leukemia = system: K-562 leukemia
KM20L2 colon = system: KM20L2 colon
XF 498 CNS = system: XF 498 CNS
A498 renal = system: A498 renal
DMS 114 small cell lung = system: DMS 114 small cell lung
U251 CNS = system: U251 CNS
EKVX NSCLC = system: EKVX NSCLC
786-0 renal = system: 786-0 renal
LXFL 529 NSCLC = system: LXFL 529 NSCLC
SN12C renal = system: SN12C renal
NCI-H23 lung = system: NCI-H23 lung
HL-60(TB) leukemia = system: HL-60(TB) leukemia
TK-10 renal = system: TK-10 renal
HOP-92 NSCLC = system: HOP-92 NSCLC
A549 NSCLC = system: A549 NSCLC
HT29 colon = system: HT29 colon
UACC-62 melanoma = system: UACC-62 melanoma
SK-OV-3 ovarian = system: SK-OV-3 ovarian
RXF-631 renal = system: RXF-631 renal
SK-MEL-2 melanoma = system: SK-MEL-2 melanoma
NCI-H522 lung = system: NCI-H522 lung
SF-295 CNS = system: SF-295 CNS
SF-268 CNS = system: SF-268 CNS
HCT-15 colon = system: HCT-15 colon
CAKI-1 renal = system: CAKI-1 renal
RXF 393 renal = system: RXF 393 renal
ACHN renal = system: ACHN renal
KM12 colon = system: KM12 colon
UO-31 renal = system: UO-31 renal
OVCAR-8 ovarian = system: OVCAR-8 ovarian
OVCAR-3 ovarian = system: OVCAR-3 ovarian
SK-MEL-28 melanoma = system: SK-MEL-28 melanoma
HOP-62 NSCLC = system: HOP-62 NSCLC
CCRF-CEM leukemia = system: CCRF-CEM leukemia
RPMI-8226 leukemia = system: RPMI-8226 leukemia
NCI-H226 lung = system: NCI-H226 lung
MOLT-4 leukemia = system: MOLT-4 leukemia
SW-620 colon = system: SW-620 colon
MALME-3M melanoma = system: MALME-3M melanoma
SNB-75 CNS = system: SNB-75 CNS
DLD-1 colon = system: DLD-1 colon
SK-MEL-5 melanoma = system: SK-MEL-5 melanoma

In the case of `O=c1c2ccccc2[nH]c2c(O)ccc(O)c12`, the TGI (NCI-H460 lung) is reported as 50.9 µM, the TGI (SF-539 CNS) is reported as 75.3 µM and the TGI (UACC-257 melanoma) is reported as 34.6 µM. For the same compound, the TGI (OVCAR-5 ovarian) was greater than 100 µM, the TGI (HCT-116 colon) was 37.9 µM and the TGI (OVCAR-4 ovarian) was 18.5 µM. The TGI (SNB-19 CNS) was greater than 100 µM, the TGI (LOX IMVI melanoma) was 33.9 µM and the TGI (DMS 273 small cell lung) was 30.5 µM. The TGI (M14 melanoma) was 30.3 µM, the TGI (SNB-78 CNS) was 39.6 µM and the TGI (SR leukemia) was 39.2 µM. It also gave a TGI (IGROV1 ovarian) of 35.3 µM, a TGI (HCC-2998 colon) greater than 100 µM and a TGI (M19-MEL melanoma) of 63.6 µM. For the same compound, the TGI (K-562 leukemia) was 56.3 µM, the TGI (KM20L2 colon) was greater than 100 µM and the TGI (XF 498 CNS) was 30.9 µM. For the same compound, the TGI (A498 renal) was 96 µM, the TGI (DMS 114 small cell lung) was 42.5 µM and the TGI (U251 CNS) was 21.6 µM. It also gave a TGI (EKVX NSCLC) greater than 62.1 µM, a TGI (786-0 renal) of 38.8 µM and a TGI (LXFL 529 NSCLC) of 28.5 µM. It also gave a TGI (SN12C renal) of 28.5 µM, a TGI (NCI-H23 lung) of 71.5 µM and a TGI (HL-60(TB) leukemia) of 10.2 µM. The TGI (TK-10 renal) was 52.6 µM, the TGI (HOP-92 NSCLC) was 34.5 µM and the TGI (A549 NSCLC) was greater than 100 µM. For the same compound, the TGI (HT29 colon) was greater than 84.9 µM, the TGI (UACC-62 melanoma) was 33.5 µM and the TGI (SK-OV-3 ovarian) was 65.9 µM. The TGI (RXF-631 renal) was 51.5 µM, the TGI (SK-MEL-2 melanoma) was greater than 100 µM and the TGI (NCI-H522 lung) was 29 µM. For the same compound, the TGI (SF-295 CNS) was 38.5 µM, the TGI (SF-268 CNS) was 76.5 µM and the TGI (HCT-15 colon) was 37.2 µM. It also gave a TGI (CAKI-1 renal) of 30.4 µM, a TGI (RXF 393 renal) of 25.8 µM and a TGI (ACHN renal) of 33.7 µM. It also gave a TGI (KM12 colon) greater than 100 µM, a TGI (UO-31 renal) greater than 79.9 µM and a TGI (OVCAR-8 ovarian) of 35.2 µM. The TGI (OVCAR-3 ovarian) was 36.1 µM, the TGI (SK-MEL-28 melanoma) was 35.2 µM and the TGI (HOP-62 NSCLC) was greater than 100 µM. It also gave a TGI (CCRF-CEM leukemia) greater than 88.6 µM, a TGI (RPMI-8226 leukemia) of 70.1 µM and a TGI (NCI-H226 lung) of 66.4 µM. The TGI (MOLT-4 leukemia) was 22.8 µM, the TGI (SW-620 colon) was 36.1 µM and the TGI (MALME-3M melanoma) was 59.7 µM.

With `O=C1CC(c2c(-c3ccccc3)[nH]c3ccccc23)C(=O)N1c1ccccc1` (centres undefined) the TGI (NCI-H460 lung) was greater than 100 µM, the TGI (SF-539 CNS) was greater than 100 µM and the TGI (SNB-75 CNS) was greater than 100 µM. For the same compound, the TGI (UACC-257 melanoma) was greater than 100 µM, the TGI (OVCAR-5 ovarian) was greater than 100 µM and the TGI (HCT-116 colon) was greater than 100 µM. The TGI (OVCAR-4 ovarian) was greater than 100 µM, the TGI (DMS 273 small cell lung) was greater than 100 µM and the TGI (DLD-1 colon) was greater than 100 µM. For the same compound, the TGI (M14 melanoma) was greater than 100 µM, the TGI (SNB-78 CNS) was greater than 100 µM and the TGI (IGROV1 ovarian) was greater than 100 µM. It also gave a TGI (HCC-2998 colon) greater than 100 µM, a TGI (M19-MEL melanoma) greater than 100 µM and a TGI (K-562 leukemia) greater than 100 µM. It also gave a TGI (KM20L2 colon) greater than 100 µM, a TGI (XF 498 CNS) greater than 100 µM and a TGI (A498 renal) greater than 100 µM. It also gave a TGI (DMS 114 small cell lung) greater than 100 µM, a TGI (U251 CNS) greater than 100 µM and a TGI (EKVX NSCLC) greater than 100 µM. For the same compound, the TGI (786-0 renal) was greater than 100 µM, the TGI (LXFL 529 NSCLC) was greater than 100 µM and the TGI (SK-MEL-5 melanoma) was greater than 100 µM. It also gave a TGI (NCI-H23 lung) greater than 100 µM, a TGI (HL-60(TB) leukemia) greater than 100 µM and a TGI (TK-10 renal) greater than 100 µM. The TGI (A549 NSCLC) was greater than 100 µM, the TGI (HT29 colon) was greater than 100 µM and the TGI (UACC-62 melanoma) was greater than 100 µM. For the same compound, the TGI (SK-OV-3 ovarian) was greater than 100 µM, the TGI (RXF-631 renal) was greater than 100 µM and the TGI (SK-MEL-2 melanoma) was greater than 100 µM. The TGI (SF-295 CNS) was greater than 100 µM, the TGI (HCT-15 colon) was greater than 100 µM and the TGI (CAKI-1 renal) was greater than 100 µM. It also gave a TGI (RXF 393 renal) greater than 100 µM, a TGI (ACHN renal) greater than 100 µM and a TGI (KM12 colon) greater than 100 µM. It also gave a TGI (UO-31 renal) greater than 100 µM, a TGI (OVCAR-8 ovarian) greater than 100 µM and a TGI (OVCAR-3 ovarian) greater than 100 µM. For the same compound, the TGI (SK-MEL-28 melanoma) was greater than 100 µM, the TGI (HOP-62 NSCLC) was 94 µM and the TGI (CCRF-CEM leukemia) was greater than 100 µM. The TGI (RPMI-8226 leukemia) was greater than 100 µM, the TGI (NCI-H226 lung) was greater than 100 µM and the TGI (MOLT-4 leukemia) was greater than 100 µM. For the same compound, the TGI (SW-620 colon) was greater than 100 µM and the TGI (MALME-3M melanoma) was greater than 100 µM.
